Assay results published in patent US4390547A, “2,2-Dimethyl-3-(substituted ethyl)cyclopropane carboxylate pesticidal compositions and methods” (priority 1981, dated 1983).

What was measured:
[1] = system: guppies; test: Fish toxicity test (Test Example 4); format: in vivo; details: concentration killing 50% of female guppies during 48 hours, 20° C.; [Mixture] = cis/trans 50/50
Protocol: The mixture was stirred well to prepare a test water. Ten female guppies from 3 to 4 months of age were released into the test water and maintained at 20° C. The concentration of the test compound at which 50% of the guppies were killed during the ensuring 48 hours was determined. [This concentration is referred to as TLm (medium tolerance limit, ppm)].
A rank corresponds to TLm of not less than 10 ppm.
B rank corresponds to TLm of 0.5-10 ppm.
C rank corresponds to TLm of not more than 0.5 ppm.

[2] = system: housefly (Musca domestica); test: Mortality test against houseflies by topical application (Test Example 1); format: in vivo; details: 24 h
Protocol: Each test compound was accurately weighed and a 1% solution and an 0.1% solution of the sample in acetone were prepared. A 1 μl portion of either of the above solutions was micropipetted onto the thoracic dorsal part of each female adult housefly (Musca domestica) under ether anaesthesia and the fly was released in a high-walled dish together with feed. The dish was covered with a metal-wire net and maintained at 25° C. After 24 hours, the test flies were inspected for deaths and the mortality (%) was calculated. Thirty test flies were used per concentration group.

[3] = system: common cabbage worms (Pieris rapae crucivora); details: common cabbage worm, in vivo, 24 h
Protocol: (§1) To 30 parts of each of Compounds (1) to (38) were added 50 parts of xylene and 20 parts of Sorpol SM-200 (a surfactant, trademark of Toho Chemical Co., Ltd.). The mixture was stirred well and dissolved to obtain a 30% emulsifiable concentrate.
The emulsifiable concentrate prepared from Compounds (7), (11) and (15) [Each compound is a mixture of cis- and trans-isomer in a ratio 20/80] in Formulation Example 5 were each diluted 1000-fold with water. Each of 15 common cabbage worms (Pieris rapae crucivora) per group were dipped into each of the dilutions for three seconds. Then, the worms were released on the leaves of the cabbage. After 24 hours, the worms were examined for deaths. The mortality (%) was not less than 90% for each of Compounds (7), (11) and (15).

[4] = system: green rice leafhoppers; test: Mortality of green rice leafhoppers on sprayed rice seedlings (Utility Example 1); details: green rice leafhopper, in vivo, 24 h
Protocol: as §1
The emulsifiable concentrate prepared from Compounds (7), (11), (12), (15), (17), (21) and (22) [Each compound is a mixture of cis- and trans-isomer in a ratio of 50/50] in Formulation Example 5 were each diluted 300-fold with water. Then, each of the dilutions was sprayed over rice seedlings 25 days after sowing at the rate of 10 ml/pot. The pot was covered with a wire net and 15 green rice leafhoppers were released under the net. After 24 hours, the leafhoppers were examined for deaths. The mortality (%) was not less than 90% for each of Compounds (7), (11), (12), (15), (17), (21) and (22).

Row | Compound | TLm (medium tolerance limit) [1] | mortality at 1 µg/fly [2] | mortality at 10 µg/fly [2] | mortality (%) [3] | mortality (%) [4]
1 | C#CC(OC(=O)[C@@H]1[C@@H](CC(Cl)(Cl)Cl)C1(C)C)c1cccc(Oc2ccccc2)c1 (relative stereo) [(11) [Trans-isomer], 3-Phenoxy-α-ethynylbenzyl 2,2-dimethyl-3-(2,2,2-trichloroethyl)cyclopropanecarboxylate] | A (A rank corresponds to TLm of not less than 10 ppm.) | 100% | 100% |  | 
2 | CC1(C)C(CC(Cl)(Cl)Cl)C1C(=O)OC(C#N)c1cccc(Oc2ccc(Cl)cc2)c1 (stereo not drawn) [(15), 3-(4-Chlorophenoxy)-α-cyanobenzyl 2,2-dimethyl-3-(2,2,2-trichloroethyl)cyclopropanecarboxylate] |  |  |  | not less than 90% | not less than 90%
3 | CC1(C)C(CC(Cl)(Cl)Cl)C1C(=O)OC(C#N)c1cccc(Oc2ccccc2)c1 (stereo not drawn) [Compound (7), 3-Phenoxy-α-cyanobenzyl 2,2-dimethyl-3-(2,2,2-trichloroethyl)cyclopropanecarboxylate] |  |  |  | not less than 90% | not less than 90%
4 | C#CC(OC(=O)C1C(CC(Cl)(Cl)Cl)C1(C)C)c1cccc(Oc2ccccc2)c1 (stereo not drawn) [Compound (11), 3-Phenoxy-α-ethynylbenzyl 2,2-dimethyl-3-(2,2,2-trichloroethyl)cyclopropanecarboxylate] |  |  |  | not less than 90% | not less than 90%
